# Experiments:
# Type in all cases: binding
# [1] = molecular target: T1, panel of 442 kinases (Homo sapiens, UniProt P48730); conditions: Compound Concentration 10 µM
# T1 construct: purchased KINOMEscan
# Description: We assessed the selectivity of members of this scaffold using the KINOMEscan methodology across a near comprehensive panel of 442 kinases [[18,27]].
# [2] = molecular target: T2, selected panels of kinases in HeLa and PC3 cell lysates (Homo sapiens, UniProt O15530); experiment: KiNativ chemical proteomics profiling in HeLa and PC3 cell lysates; conditions: 10 uM; PDK1; peptide EYAIkILEK; proteome PC3; labeling site Lys1
# T2 construct: endogenous in cells; host or cells: HeLa and PC3 cell lysates
# [3] = molecular target: T3, selected panels of kinases in HeLa and PC3 cell lysates (Homo sapiens, UniProt O75385); experiment: as above; conditions: 10 uM; ULK1; peptide DLk[…]; proteome HEL; labeling site Lys2
# T3 construct: endogenous in cells; host or cells: HeLa and PC3 cell lysates
# [4] = molecular target: T4, selected panels of kinases in HeLa and PC3 cell lysates (Homo sapiens, UniProt P07948); experiment: as above; conditions: 10 uM; proteome HEL; peptide VAVk[…]; labeling site Lys1
# T4 construct: endogenous in cells; host or cells: HeLa and PC3 cell lysates
# [5] = molecular target: T5, selected panels of kinases in HeLa and PC3 cell lysates (Homo sapiens, UniProt P20594); experiment: as above; conditions: 10 uM; proteome PC3; peptide […]k[…]; labeling site Lys2
# T5 construct: endogenous in cells; host or cells: HeLa and PC3 cell lysates
# [6] = molecular target: T6, selected panels of kinases in HeLa and PC3 cell lysates (Homo sapiens, UniProt P30291); experiment: as above; conditions: 10 uM; Wee1; peptide […]k[…]; proteome HEL; labeling site Lys2
# T6 construct: endogenous in cells; host or cells: HeLa and PC3 cell lysates
# [7] = molecular target: T7, selected panels of kinases in HeLa and PC3 cell lysates (Homo sapiens, UniProt P43405); experiment: as above; conditions: 10 uM; SYK; peptide ISDFGLSkALR; proteome HEL; labeling site Activation Loop
# T7 construct: endogenous in cells; host or cells: HeLa and PC3 cell lysates
# [8] = molecular target: T8, selected panels of kinases in HeLa and PC3 cell lysates (Homo sapiens, UniProt Q14164); experiment: as above; conditions: 10 uM; proteome HEL; peptide SGELVAVk[…]; labeling site Lys1
# T8 construct: endogenous in cells; host or cells: HeLa and PC3 cell lysates
# [9] = molecular target: T9, selected panels of kinases in HeLa and PC3 cell lysates (Homo sapiens, UniProt Q9NZJ5); experiment: as above; conditions: 10 uM, PEK, peptide DLk[…], labeling site Lys2
# T9 construct: endogenous in cells; host or cells: HeLa and PC3 cell lysates
# T9 sequence (Q9NZJ5 30-1116): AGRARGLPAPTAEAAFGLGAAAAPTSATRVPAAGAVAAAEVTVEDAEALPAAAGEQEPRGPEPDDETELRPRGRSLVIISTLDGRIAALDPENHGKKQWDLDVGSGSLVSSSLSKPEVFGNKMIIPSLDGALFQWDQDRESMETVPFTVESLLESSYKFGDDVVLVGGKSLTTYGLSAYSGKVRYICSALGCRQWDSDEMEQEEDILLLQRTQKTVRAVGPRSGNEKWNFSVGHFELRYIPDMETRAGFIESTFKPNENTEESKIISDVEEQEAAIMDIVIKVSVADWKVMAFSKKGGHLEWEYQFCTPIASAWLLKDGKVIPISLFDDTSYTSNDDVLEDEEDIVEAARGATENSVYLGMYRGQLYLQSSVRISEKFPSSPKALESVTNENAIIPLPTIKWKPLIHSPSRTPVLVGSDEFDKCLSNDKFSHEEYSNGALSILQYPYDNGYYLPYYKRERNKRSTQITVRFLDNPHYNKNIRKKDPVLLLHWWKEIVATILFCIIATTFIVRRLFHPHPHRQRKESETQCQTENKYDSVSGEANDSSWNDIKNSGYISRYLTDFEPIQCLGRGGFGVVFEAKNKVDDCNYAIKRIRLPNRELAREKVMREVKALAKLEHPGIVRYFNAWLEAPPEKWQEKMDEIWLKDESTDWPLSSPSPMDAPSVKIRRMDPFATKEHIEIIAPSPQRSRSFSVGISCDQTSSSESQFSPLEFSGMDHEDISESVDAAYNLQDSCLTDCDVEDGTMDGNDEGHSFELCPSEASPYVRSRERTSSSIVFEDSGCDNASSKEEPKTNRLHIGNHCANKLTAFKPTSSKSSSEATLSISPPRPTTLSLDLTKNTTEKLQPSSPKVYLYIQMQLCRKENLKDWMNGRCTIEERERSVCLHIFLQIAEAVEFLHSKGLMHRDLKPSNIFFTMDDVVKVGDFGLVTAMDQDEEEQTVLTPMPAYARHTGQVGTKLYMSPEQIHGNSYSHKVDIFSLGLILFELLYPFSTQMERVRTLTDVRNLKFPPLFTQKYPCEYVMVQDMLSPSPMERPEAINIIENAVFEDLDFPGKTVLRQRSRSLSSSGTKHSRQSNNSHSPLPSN
# T1 sequence (P48730 whole entry): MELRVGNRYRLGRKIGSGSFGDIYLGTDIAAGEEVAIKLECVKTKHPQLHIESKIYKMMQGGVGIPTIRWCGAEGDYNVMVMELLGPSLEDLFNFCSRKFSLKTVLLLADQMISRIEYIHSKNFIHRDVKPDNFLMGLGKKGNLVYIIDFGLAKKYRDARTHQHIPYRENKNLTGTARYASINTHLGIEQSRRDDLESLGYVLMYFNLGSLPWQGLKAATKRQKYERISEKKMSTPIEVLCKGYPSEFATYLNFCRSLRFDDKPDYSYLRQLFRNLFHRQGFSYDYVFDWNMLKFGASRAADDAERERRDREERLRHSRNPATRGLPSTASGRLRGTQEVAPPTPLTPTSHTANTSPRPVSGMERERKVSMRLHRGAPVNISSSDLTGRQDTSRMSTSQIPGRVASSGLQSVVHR
# T4 sequence (P07948 whole entry): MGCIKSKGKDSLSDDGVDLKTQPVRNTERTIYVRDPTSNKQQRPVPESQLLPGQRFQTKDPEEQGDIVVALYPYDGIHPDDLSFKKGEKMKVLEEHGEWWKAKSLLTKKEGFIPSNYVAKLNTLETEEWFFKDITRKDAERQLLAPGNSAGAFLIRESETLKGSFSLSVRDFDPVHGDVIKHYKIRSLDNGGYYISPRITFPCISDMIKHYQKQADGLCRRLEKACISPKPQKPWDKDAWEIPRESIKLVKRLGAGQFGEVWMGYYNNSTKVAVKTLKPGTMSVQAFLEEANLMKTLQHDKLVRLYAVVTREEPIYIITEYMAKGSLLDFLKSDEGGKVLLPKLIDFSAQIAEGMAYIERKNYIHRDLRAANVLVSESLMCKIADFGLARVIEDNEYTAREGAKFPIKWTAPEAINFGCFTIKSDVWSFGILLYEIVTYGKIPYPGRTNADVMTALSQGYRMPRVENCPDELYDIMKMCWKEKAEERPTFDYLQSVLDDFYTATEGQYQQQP
# T3 sequence (O75385 whole entry): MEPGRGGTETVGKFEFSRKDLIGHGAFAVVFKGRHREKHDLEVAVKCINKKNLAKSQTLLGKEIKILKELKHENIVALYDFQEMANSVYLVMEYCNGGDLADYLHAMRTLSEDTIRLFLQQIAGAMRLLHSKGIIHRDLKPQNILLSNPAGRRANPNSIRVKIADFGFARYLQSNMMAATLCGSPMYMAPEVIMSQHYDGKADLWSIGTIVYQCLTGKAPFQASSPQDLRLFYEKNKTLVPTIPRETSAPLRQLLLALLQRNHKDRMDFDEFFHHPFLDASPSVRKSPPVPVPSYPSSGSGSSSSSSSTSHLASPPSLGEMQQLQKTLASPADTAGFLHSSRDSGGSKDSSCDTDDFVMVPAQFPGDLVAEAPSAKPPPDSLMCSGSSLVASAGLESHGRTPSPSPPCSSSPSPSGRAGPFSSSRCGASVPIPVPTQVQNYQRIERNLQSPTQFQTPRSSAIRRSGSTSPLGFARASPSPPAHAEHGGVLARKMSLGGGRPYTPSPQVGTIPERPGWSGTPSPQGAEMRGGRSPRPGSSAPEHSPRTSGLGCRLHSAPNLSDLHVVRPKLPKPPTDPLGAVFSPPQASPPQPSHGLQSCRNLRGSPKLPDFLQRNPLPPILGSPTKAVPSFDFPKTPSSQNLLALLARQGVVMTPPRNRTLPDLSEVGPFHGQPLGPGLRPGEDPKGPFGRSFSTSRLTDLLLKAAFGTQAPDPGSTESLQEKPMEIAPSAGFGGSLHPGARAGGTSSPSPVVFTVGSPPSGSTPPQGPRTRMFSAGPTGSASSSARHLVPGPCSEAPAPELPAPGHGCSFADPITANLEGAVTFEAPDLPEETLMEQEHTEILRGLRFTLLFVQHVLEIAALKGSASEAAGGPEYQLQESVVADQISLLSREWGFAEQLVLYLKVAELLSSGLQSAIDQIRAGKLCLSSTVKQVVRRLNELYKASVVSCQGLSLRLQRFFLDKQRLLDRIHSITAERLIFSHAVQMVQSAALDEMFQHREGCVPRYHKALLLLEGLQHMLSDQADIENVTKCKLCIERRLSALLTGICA
# T6 sequence (P30291 whole entry): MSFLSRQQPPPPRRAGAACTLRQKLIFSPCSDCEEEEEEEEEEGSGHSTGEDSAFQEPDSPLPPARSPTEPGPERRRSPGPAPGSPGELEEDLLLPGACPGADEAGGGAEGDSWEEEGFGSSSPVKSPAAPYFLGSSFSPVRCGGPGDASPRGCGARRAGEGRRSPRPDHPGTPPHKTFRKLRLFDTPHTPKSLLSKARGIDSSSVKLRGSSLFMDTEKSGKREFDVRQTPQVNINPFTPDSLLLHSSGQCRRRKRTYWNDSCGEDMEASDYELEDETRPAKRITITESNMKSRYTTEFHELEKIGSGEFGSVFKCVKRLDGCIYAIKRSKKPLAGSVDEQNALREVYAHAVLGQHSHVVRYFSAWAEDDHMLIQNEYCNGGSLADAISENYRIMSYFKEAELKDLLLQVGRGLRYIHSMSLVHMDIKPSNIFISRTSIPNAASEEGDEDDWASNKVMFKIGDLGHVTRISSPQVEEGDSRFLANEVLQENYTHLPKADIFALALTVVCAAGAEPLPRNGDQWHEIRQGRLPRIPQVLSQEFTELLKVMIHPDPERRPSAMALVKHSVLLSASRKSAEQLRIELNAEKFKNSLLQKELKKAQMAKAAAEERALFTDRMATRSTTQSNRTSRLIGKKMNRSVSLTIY
# T2 sequence (O15530 whole entry): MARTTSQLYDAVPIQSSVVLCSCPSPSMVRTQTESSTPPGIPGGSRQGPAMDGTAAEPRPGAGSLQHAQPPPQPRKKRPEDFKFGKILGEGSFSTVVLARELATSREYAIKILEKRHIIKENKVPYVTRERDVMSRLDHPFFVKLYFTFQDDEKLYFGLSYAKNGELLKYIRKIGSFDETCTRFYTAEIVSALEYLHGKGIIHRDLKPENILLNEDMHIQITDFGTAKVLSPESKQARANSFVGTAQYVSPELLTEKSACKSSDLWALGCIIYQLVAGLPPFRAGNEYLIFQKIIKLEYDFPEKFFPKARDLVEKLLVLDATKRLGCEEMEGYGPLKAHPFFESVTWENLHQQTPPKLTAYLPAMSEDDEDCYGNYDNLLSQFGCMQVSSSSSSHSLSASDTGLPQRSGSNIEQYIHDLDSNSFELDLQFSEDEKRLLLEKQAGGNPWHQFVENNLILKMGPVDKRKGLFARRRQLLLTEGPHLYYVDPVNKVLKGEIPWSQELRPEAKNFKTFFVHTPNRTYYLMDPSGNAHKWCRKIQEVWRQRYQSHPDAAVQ
# T5 sequence (P20594 23-1047): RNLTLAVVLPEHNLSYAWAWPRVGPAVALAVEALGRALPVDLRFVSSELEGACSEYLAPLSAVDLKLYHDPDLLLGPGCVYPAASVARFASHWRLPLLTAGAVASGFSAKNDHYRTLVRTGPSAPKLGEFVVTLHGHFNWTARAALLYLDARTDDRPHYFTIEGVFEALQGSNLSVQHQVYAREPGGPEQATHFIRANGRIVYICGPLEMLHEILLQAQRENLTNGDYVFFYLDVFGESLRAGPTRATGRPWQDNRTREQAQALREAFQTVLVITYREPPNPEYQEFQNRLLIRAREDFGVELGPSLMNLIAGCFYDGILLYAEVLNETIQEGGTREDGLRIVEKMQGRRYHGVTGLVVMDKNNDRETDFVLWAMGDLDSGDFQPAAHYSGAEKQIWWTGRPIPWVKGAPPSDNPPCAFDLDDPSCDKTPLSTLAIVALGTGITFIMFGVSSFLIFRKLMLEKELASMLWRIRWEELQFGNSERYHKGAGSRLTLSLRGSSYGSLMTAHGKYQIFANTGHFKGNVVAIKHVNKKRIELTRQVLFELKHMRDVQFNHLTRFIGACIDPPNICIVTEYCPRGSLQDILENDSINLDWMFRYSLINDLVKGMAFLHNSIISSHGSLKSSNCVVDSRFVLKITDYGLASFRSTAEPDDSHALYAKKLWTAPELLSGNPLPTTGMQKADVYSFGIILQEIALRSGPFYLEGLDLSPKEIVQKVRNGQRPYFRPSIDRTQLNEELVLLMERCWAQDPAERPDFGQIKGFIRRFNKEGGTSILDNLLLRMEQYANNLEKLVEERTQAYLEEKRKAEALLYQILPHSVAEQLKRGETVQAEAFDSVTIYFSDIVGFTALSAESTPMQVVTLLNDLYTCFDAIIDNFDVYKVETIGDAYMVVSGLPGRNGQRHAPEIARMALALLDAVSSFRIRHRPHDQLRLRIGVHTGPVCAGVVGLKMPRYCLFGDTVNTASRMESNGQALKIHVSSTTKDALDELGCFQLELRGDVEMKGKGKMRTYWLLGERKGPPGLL
# T8 sequence (Q14164 whole entry): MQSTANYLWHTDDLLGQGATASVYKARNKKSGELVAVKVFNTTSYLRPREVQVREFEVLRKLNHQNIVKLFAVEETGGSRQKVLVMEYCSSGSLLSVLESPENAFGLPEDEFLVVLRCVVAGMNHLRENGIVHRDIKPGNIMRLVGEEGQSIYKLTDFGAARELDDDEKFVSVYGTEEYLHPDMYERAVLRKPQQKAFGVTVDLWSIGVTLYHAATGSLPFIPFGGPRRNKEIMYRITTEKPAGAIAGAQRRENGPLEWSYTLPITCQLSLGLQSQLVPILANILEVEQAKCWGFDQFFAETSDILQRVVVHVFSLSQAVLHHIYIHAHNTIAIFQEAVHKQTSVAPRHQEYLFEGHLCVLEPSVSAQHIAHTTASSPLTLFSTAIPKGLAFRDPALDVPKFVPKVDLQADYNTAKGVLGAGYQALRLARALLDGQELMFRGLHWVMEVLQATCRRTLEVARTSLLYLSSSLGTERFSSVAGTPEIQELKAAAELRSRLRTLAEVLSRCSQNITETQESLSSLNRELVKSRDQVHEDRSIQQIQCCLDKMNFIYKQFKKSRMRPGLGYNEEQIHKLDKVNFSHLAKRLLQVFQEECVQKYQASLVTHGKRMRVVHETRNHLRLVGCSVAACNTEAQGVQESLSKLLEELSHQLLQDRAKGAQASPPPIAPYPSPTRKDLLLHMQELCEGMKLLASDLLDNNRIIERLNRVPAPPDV
Compound,KINOMEscan: CSNK1D [1],% Inhibition PDK1 [2],% Inhibition ULK1 [3],"% Inhibiton, LYN [4]","% Inhibiton, ANPb [5]",% Inhibition Wee1 [6],% Inhibition SYK [7],"% Inhibiton, IKKe [8]",% Inhibition PEK ([9]; proteome HEL),% Inhibition PEK ([9]; proteome PC3)
"COc1cc(C(=O)N2CCC(N3CCN(C)CC3)CC2)ccc1Nc1ncc2c(n1)N(C1CCCC1)c1ccccc1C(=O)N2C [Compound 25, 11-cyclopentyl-2-((2-methoxy-4-(4-(4-methylpiperazin-1-yl)piperidine-1-carbonyl)phenyl)amino)-5-methyl-5H-benzo[e]pyrimido[5,4-b][1,4]diazepin-6(11H)-one]",98,-5.4%,6.4%,-2.9%,-11.4%,11.1%,5.7%,-20.7%,6.4%,6.5%
COc1cc(C(=O)N2CCC(N3CCN(C)CC3)CC2)ccc1Nc1ncc2c(n1)N1CCc3cccc(c31)C(=O)N2C [Compound 24],60,,,,,,,,,
COc1cc(C(=O)N2CCC(N3CCN(C)CC3)CC2)ccc1Nc1ncc2c(n1)N(C)c1ccccc1C(=O)N2C [15 (LRRK2-IN-1)],81,,,,,,,,,
CCOc1cc(C(=O)N2CCC(N3CCN(C)CC3)CC2)ccc1Nc1ncc2c(n1)N(C1CCCC1)c1ccccc1C(=O)N2C [Compound 26],100,0%,-5.1%,26.5%,24.3%,2.9%,-0.8%,8.6%,-23.3%,-4.9%

# From publication PMC3914206
